Experimental data as given in PubChem BioAssay (NCI).
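Method: 48-hour compound exposure of cells in 96-well plates, five concentrations, linear interpolation of endpoints. At the GI50, growth is halved. TGI: total growth inhibition.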

Columns and labels:
Experiment in all cases: NCI-60 cell line screen, 48 h
[1] = system: SF-268 CNS
[2] = system: OVCAR-3 ovarian
[3] = system: HT29 colon
[4] = system: SK-MEL-28 melanoma
[5] = system: CAKI-1 renal
[6] = system: A549 NSCLC
[7] = system: HS 578T breast
[8] = system: SF-295 CNS
[9] = system: SN12C renal
[10] = system: COLO 205 colon
[11] = system: HOP-62 NSCLC
[12] = system: ACHN renal
[13] = system: HCT-116 colon
[14] = system: K-562 leukemia
[15] = system: UO-31 renal
[16] = system: MCF7 breast
[17] = system: DU-145 prostate
[18] = system: HL-60(TB) leukemia
[19] = system: RPMI-8226 leukemia
[20] = system: NCI-H522 lung
[21] = system: LOX IMVI melanoma
[22] = system: HOP-92 NSCLC
[23] = system: OVCAR-4 ovarian
[24] = system: U251 CNS
[25] = system: SK-MEL-5 melanoma
[26] = system: NCI-H460 lung
[27] = system: OVCAR-5 ovarian
[28] = system: UACC-257 melanoma
[29] = system: T-47D breast
[30] = system: KM12 colon
[31] = system: MDA-MB-231 breast
[32] = system: MDA-MB-435
[33] = system: SW-620 colon
[34] = system: SK-OV-3 ovarian
[35] = system: SF-539 CNS
[36] = system: NCI/ADR-RES ovarian
[37] = system: 786-0 renal
[38] = system: SR leukemia
[39] = system: SNB-19 CNS
[40] = system: SNB-75 CNS
[41] = system: MALME-3M melanoma
[42] = system: RXF 393 renal
[43] = system: PC-3 prostate
[44] = system: OVCAR-8 ovarian
[45] = system: NCI-H226 lung
[46] = system: MOLT-4 leukemia
[47] = system: UACC-62 melanoma
[48] = system: HCC-2998 colon
[49] = system: NCI-H23 lung
[50] = system: CCRF-CEM leukemia
[51] = system: IGROV1 ovarian
[52] = system: SK-MEL-2 melanoma
[53] = system: TK-10 renal
[54] = system: HCT-15 colon
[55] = system: BT-549 breast
[56] = system: A498 renal

COc1ccc(-c2cc(=O)oc3c4c(ccc23)OCN(Cc2ccc(F)cc2)C4)cc1
GI50 [1]: 16.6 µM
TGI [1]: 34.8 µM
GI50 [2]: 15.3 µM
TGI [2]: 29.9 µM
GI50 [3]: 17.6 µM
TGI [3]: 34.9 µM
GI50 [4]: 15.1 µM
TGI [4]: 30.7 µM
GI50 [5]: 14.7 µM
TGI [5]: 44.3 µM
GI50 [6]: 25.6 µM
TGI [6]: > 100 µM
GI50 [7]: 15.8 µM
TGI [7]: 47.9 µM
GI50 [8]: 15 µM
TGI [8]: 30 µM
GI50 [9]: 15.6 µM
TGI [9]: 32.2 µM
GI50 [10]: 18.7 µM
TGI [10]: 36.1 µM
GI50 [11]: 14.4 µM
TGI [11]: 30.8 µM
GI50 [12]: 19.4 µM
TGI [12]: 65 µM
GI50 [13]: 13.6 µM
TGI [13]: 27.7 µM
GI50 [14]: 19.3 µM
TGI [14]: 68.4 µM
GI50 [15]: 7.26 µM
TGI [15]: 37.9 µM
GI50 [16]: 15.7 µM
TGI [16]: 34.5 µM
GI50 [17]: 24.3 µM
TGI [17]: 59.9 µM
GI50 [18]: 23.2 µM
TGI [18]: 57.4 µM
GI50 [19]: 15.4 µM
TGI [19]: 37.1 µM
GI50 [20]: 16.6 µM
TGI [20]: 33.6 µM
GI50 [21]: 16.7 µM
TGI [21]: 32.3 µM
GI50 [22]: 10 µM
TGI [22]: 24.2 µM
GI50 [23]: 17.4 µM
TGI [23]: 43.2 µM
GI50 [24]: 14.8 µM
TGI [24]: 29 µM
GI50 [25]: 12.7 µM
TGI [25]: 25.4 µM
GI50 [26]: 15.9 µM
TGI [26]: 30.2 µM
GI50 [27]: 18.4 µM
TGI [27]: 45.1 µM
GI50 [28]: 14.9 µM
TGI [28]: 29.9 µM
GI50 [29]: 13.5 µM
TGI [29]: 43.8 µM
GI50 [30]: 17.6 µM
TGI [30]: 35.2 µM
GI50 [31]: 18.5 µM
TGI [31]: 40.2 µM
GI50 [32]: 16.5 µM
TGI [32]: 34.7 µM
GI50 [33]: 16.3 µM
TGI [33]: 31.8 µM
GI50 [34]: 19.1 µM
TGI [34]: 52.9 µM
GI50 [35]: 15.8 µM
TGI [35]: 32.5 µM
GI50 [36]: 17.2 µM
TGI [36]: 42.9 µM
GI50 [37]: 15.1 µM
TGI [37]: 32.8 µM
GI50 [38]: 13 µM
TGI [38]: 39.9 µM
GI50 [39]: 15.6 µM
TGI [39]: 36.4 µM
GI50 [40]: 6.62 µM
TGI [40]: 25.3 µM
GI50 [41]: 15.4 µM
TGI [41]: 32.7 µM
GI50 [42]: 13 µM
TGI [42]: 29.2 µM
GI50 [43]: 15.8 µM
TGI [43]: 44.1 µM
GI50 [44]: 17.2 µM
TGI [44]: 37.7 µM
GI50 [45]: 18.2 µM
TGI [45]: 54.5 µM
GI50 [46]: 19.4 µM
TGI [46]: 58.3 µM
GI50 [47]: 14.7 µM
TGI [47]: 29.3 µM
GI50 [48]: 19.2 µM
TGI [48]: 37 µM
GI50 [49]: 20.5 µM
TGI [49]: 49.4 µM
GI50 [50]: 25.8 µM
TGI [50]: 82 µM
GI50 [51]: 20.5 µM
TGI [51]: 51.5 µM
GI50 [52]: 16.3 µM
TGI [52]: 31.3 µM
GI50 [53]: 16.1 µM
TGI [53]: 49.3 µM
GI50 [54]: 15.4 µM
TGI [54]: 31.8 µM
GI50 [55]: 14.6 µM
TGI [55]: 31.3 µM
GI50 [56]: 1.23 µM
TGI [56]: 10.3 µM
